Results reported in patent publication US4567293A, “2-[Para-(2-substituted or unsubstituted-3,3,3-tri-fluoropropyl)phenyl]propionic acid or a salt thereof” (Kureha Kagaku Kogyo Kabushiki Kaisha, priority 1981, dated 1986).

Columns and labels:
in vivo = conditions: oral, mouse, in olive oil, 14 days observation
Protocol: Acute toxicity of the present compound were determined as follows.
Each of the specimens was dispersed in an olive oil. The dispersion was administered to an ICR-JCL mouse orally by a stomach sonde at a predetermined amount. After administration, the intoxication symptoms were continuously observed for 14 days. LD50 value was obtained from the cumulative mortality of the mice by applying the data to the Litchfield-Wilcoxon's graphical method.

[1] = system: carrageenin-induced edema; assay: Anti-inflammatory activity: inhibition of carrageenin-induced edema (Example 6); type: in vivo, rat (female Wister); conditions: 4 hours after carrageenin
Protocol: Anti-inflammatory activity of the present compound was examined by using 10 female Wister rats of 110 to 130 g of body weight as one group following the method of C. A. Winter [refer to Proc. Soc. Exp. Biol. Med., 111, 544(1962)]in which the ratio of inhibiting the carrageenin-induced edema is determined.
(§1) An aqueous suspension of each specimen in an aqueous 1% carboxymethoxycellulose solution was orally administered to the rat in volume of 1 ml per 100 g body weight. The rat as the control group was administered with only an aqueous 1% solution of carboxymethoxycellulose. One hour after the administration, 0.1 ml of an aqueous 1% solution of carrageenin in physiological saline was injected into the plantar tissue of the right hind paw of the rat. Then, after 4 hours from the injection, the volume of the injected foot was measured to find the volume of swelling by subtracting the volume of foot before the injection from that value.
(§2) By comparing the volume of the swelling of the administered group to that of the control group, the ratio of inhibiting the swelling (I.R., %) was calculated according to the following formula: [formula] wherein T represents the average volume of swelling in the group administered with the specimen, and
(§3) C represents the average volume of swelling in the control group.

[2] = system: carrageenin-induced edema; assay: Anti-inflammatory activity: inhibition of carrageenin-induced edema (Example 7, rats of 92 to 112 g); type: in vivo, rat (female Wister)
Protocol: […] A. Winter [refer to Proc. Soc.
as §1, §2, §3

SMILES	LD50 at 336 h (in vivo)	Inhibitation of carrageenin-induced edema ([1]; oral dose 2.5 mg/Kg)	Inhibitation of carrageenin-induced edema ([1]; oral dose 5 mg/Kg)	Inhibitation of carrageenin-induced edema ([1]; oral dose 10 mg/Kg)	Inhibitation of carrageenin-induced edema ([1]; oral dose 25 mg/Kg)	Inhibitation of carrageenin-induced edema ([1]; oral dose 50 mg/Kg)	Inhibitation of carrageenin-induced edema ([1]; oral dose 100 mg/Kg)	Inhibitation of carrageenin-induced edema ([1]; oral dose 200 mg/Kg)	Inhibition of carrageenin-induced edema ([2]; oral dose 25 mg/kg)	Inhibition of carrageenin-induced edema ([2]; oral dose 100 mg/kg)
CC(C(=O)O)c1ccc(CC(C(F)(F)F)C(F)(F)F)cc1 (centres unmarked) [Specimen I, 2-[p-(2-trifluoromethyl-3,3,3-trifluoropropyl)phenyl]propionic acid]	1100 mg/kg	37%	40%	46%	50%	55%	57%	63%	–	–
CC(C(=O)O)c1ccc(CC(C)C(F)(F)F)cc1 (centres unmarked) [Specimen II, 2-[p-(2-methyl-3,3,3-trifluoropropyl)phenyl]propionic acid]	1040 mg/kg	–	37%	40%	–	50%	54%	65%	–	–
CC(C(=O)O)c1ccc(CCC(F)(F)F)cc1 (centres unmarked) [Specimen III, 2-[p-(3,3,3-trifluoropropyl)phenyl]propionic acid]	1000 mg/kg	–	–	–	–	–	–	–	38%	44%
CC(C)Cc1ccc(C(C)C(=O)O)cc1 (centres unmarked) [Specimen IV, 2-(p-isobutylphenyl)propionic acid, reference compound]	–	–	–	–	29%	40%	42%	52%	–	–
CC(=O)Oc1ccccc1C(=O)O [Specimen V, acetyl salicyclic acid, reference compound]	–	–	–	–	–	–	–	–	10%	28%
